Reference: US20140045806A1 (priority 2012, published 2014)
Several values for one entry are separate records, joined by “and”; a condition that tells them apart may be missing. Identical values can stand only once. Like-named read-outs stand apart in the source and are kept apart here. Marks after values point to notes of the source that are not given here.

Legend:
vaginal nerve fibers = settings: rat, lamina propria and muscularis, cited from earlier work
postmenopausal women = test: ERC-210 phase III trial, Abbreviated Sexual Function (ASF) questionnaire; type: in vivo
Source text: The example below is intended only to illustrate a particular embodiment of the present invention and is not meant to limit the scope of the invention in any manner. This study (ERC-210) is a phase III, prospective, multicentre, randomized, placebo-controlled, and double-blind trial. […] The DHEA ovules or suppositories (Vaginorm™) containing prasterone in a lipophilic base were manufactured by Recipharm, Karlskoga, Sweden. The study was divided into two phases, namely screening followed by a treatment period of 12 weeks. The protocol was approved by the Institutional Review Board of the Centre Hospitalier de I'Université Laval (Quebec City, Canada), McGill University (Montreal, Canada), Ethica (Montreal, Canada), Eastern Virginia Medical School (Norfolk, Va., USA) and the Western Institutional Review Board (Los Angeles, USA).
The inclusion and exclusion criteria were as described in (Labrie, Archer et al. 2009b). A written informed consent was obtained from all subjects prior to the performance of any study-related procedure. […] A partial gynecological examination was performed to evaluate the aspect of the mucosa and tolerance to the medication on day 1 and at all visits. The standard laboratory tests, namely hematology (including complete blood count and coagulation), blood chemistry and urinalysis were performed at screening, day 1 and at all visits. Summary tabulations were prepared displaying the number of observations, mean or geometric mean as appropriate, SD; SEM, 95% two-sided CI; median, minimum, and maximum for continuous variables; and the number and percentage per category for categorical data. Statistical analyses were performed at the two-sided significance level of 0.05 unless otherwise stated. […] The endpoints for analysis consisted of the following: desire/interest, arousal and orgasm were self-rated by the women at screening, at day 1, and at week 4, 8 and 12 using the ASF and MENQOL questionnaires. Baseline was defined as the value on day 1, obtained before first use of the study treatment, and change from baseline to week 12 was calculated for each participant for each domain endpoint. The analysis comparing each dose of DHEA to placebo was performed by analysis of covariance, with the baseline value used as the covariate. Missing values were replaced by the last observation made.
The other questionnaire used in our study to investigate sexual dysfunction has been the Abbreviated Sexual Function (ASF) questionnaire. […] When the groups with no MS pain are considered, improvements of −1.2% (p=0.9028), 31% (p=0.0337), 4.8% (p=0.3706) and 3.7% (p=0.5372) are observed compared to 12% (p=0.0134), 32% (p=0.1349), 16% (p=0.8546) and 29% (p=0.0341) in the corresponding MS pain groups.
When the orgasm domain of the ASF questionnaire is analyzed, a strong placebo effect is observed in response to the composite of the three following questions; a) over the last 4 weeks, how often did you have an orgasm when you took part in sexual activity (may be with or without partner); b) over the last 4 weeks, in general, how pleasurable were the orgasms the you had and; c) over the last 4 weeks, in general, how easy was it for you to reach orgasm?

[1] = 0.25% DHEA intravaginal daily 12 weeks, MS pain at sexual activity at baseline
[2] = 0.25% DHEA intravaginal daily 12 weeks, all subjects (ITT)
[3] = 0.25% DHEA intravaginal daily 12 weeks, no MS pain at sexual activity at baseline
[4] = 0.5% DHEA intravaginal daily 12 weeks, MS pain at sexual activity at baseline
[5] = 0.5% DHEA intravaginal daily 12 weeks, all subjects (ITT)
[6] = 0.5% DHEA intravaginal daily 12 weeks, no MS pain at sexual activity at baseline
[7] = 1.0% DHEA intravaginal daily 12 weeks, no MS pain at sexual activity at baseline
[8] = Pool 3 Doses DHEA intravaginal daily 12 weeks, MS pain at sexual activity at baseline
[9] = Pool 3 Doses DHEA intravaginal daily 12 weeks, MS pain at sexual activity at baseline, listed as prasterone
[10] = Pool 3 Doses DHEA intravaginal daily 12 weeks, all subjects (ITT)
[11] = Pool 3 Doses DHEA intravaginal daily 12 weeks, all subjects (ITT), listed as prasterone
[12] = Pool 3 Doses DHEA intravaginal daily 12 weeks, no MS pain at sexual activity at baseline
[13] = Pool 3 Doses DHEA intravaginal daily 12 weeks, no MS pain at sexual activity at baseline, listed as prasterone
[14] = average of the 3 DHEA doses, MS PAIN at baseline
[15] = average of the 3 DHEA doses, NO MS PAIN at baseline
[16] = average of the 3 DHEA doses, TOTAL (all women)

## C[C@]12CC[C@H](O)CC1=CC[C@@H]1[C@@H]2CC[C@]2(C)C(=O)CC[C@@H]12 [DHEA, (3β)-3-Hydroxyandrost-5-en-17-one]
Vaginal nerve fibers
  Density of vaginal nerve fibers: increases the density of nerve fibers
Vaginal nerve fibers; listed as prasterone
  Density of vaginal nerve fibers: stimulatory effect
Postmenopausal women; [1]
  ASF Arousal/lubrication score, average % change from baseline to Week 12 (increased from baseline): 189%
  ASF Arousal/sensation score, average % change from baseline to Week 12 (increased from baseline): 97%
  ASF Desire score, average % change from baseline to Week 12 (increased from baseline): 32%
  ASF Orgasm score, average % change from baseline to Week 12 (increased from baseline): 66%
  ASF SUMMARY SCORE, average % change from baseline to Week 12 (increased from baseline): 59%
Postmenopausal women; [2]
  ASF Arousal/sensation score, average % change from baseline to Week 12 (increased from baseline): 80%
  ASF Orgasm score, average % change from baseline to Week 12 (increased from baseline): 64%
Postmenopausal women; [3]
  ASF Arousal/lubrication score, average % change from baseline to Week 12 (increased from baseline): 95%
  ASF Arousal/sensation score, average % change from baseline to Week 12 (increased from baseline): 43%
  ASF Orgasm score, average % change from baseline to Week 12 (increased from baseline): 59%
  ASF SUMMARY SCORE, average % change from baseline to Week 12 (increased from baseline): 42%
Postmenopausal women; [4]
  ASF Arousal/sensation score, average % change from baseline to Week 12 (increased from baseline): 66%
  ASF Desire score, average % change from baseline to Week 12 (increased from baseline): 16%
  ASF Orgasm score, average % change from baseline to Week 12 (increased from baseline): 51%
  ASF SUMMARY SCORE, average % change from baseline to Week 12 (increased from baseline): 42%
Postmenopausal women; [5]
  ASF Desire score, average % change from baseline to Week 12 (increased from baseline): 13%
  ASF Orgasm score, average % change from baseline to Week 12 (increased from baseline): 53%
  ASF SUMMARY SCORE, average % change from baseline to Week 12 (increased from baseline): 39%
Postmenopausal women; [6]
  ASF Arousal/lubrication score, average % change from baseline to Week 12 (increased from baseline): 106%
  ASF Arousal/sensation score, average % change from baseline to Week 12 (increased from baseline): 103%
  ASF Desire score, average % change from baseline to Week 12 (increased from baseline): 4.8%
  ASF Orgasm score, average % change from baseline to Week 12 (increased from baseline): 56%
  ASF SUMMARY SCORE, average % change from baseline to Week 12 (increased from baseline): 31%
Postmenopausal women; 1.0% DHEA intravaginal daily 12 weeks, MS pain at sexual activity at baseline
  ASF Orgasm score, average % change from baseline to Week 12 (increased from baseline): 76%
Postmenopausal women; 1.0% DHEA intravaginal daily 12 weeks, all subjects (ITT)
  ASF Orgasm score, average % change from baseline to Week 12 (increased from baseline): 71%
Postmenopausal women; [7]
  ASF Arousal/lubrication score, average % change from baseline to Week 12 (increased from baseline): 63%
  ASF Arousal/sensation score, average % change from baseline to Week 12 (increased from baseline): 30%
  ASF Desire score, average % change from baseline to Week 12 (increased from baseline): 3.7%
  ASF Orgasm score, average % change from baseline to Week 12 (increased from baseline): 50%
  ASF SUMMARY SCORE, average % change from baseline to Week 12 (increased from baseline): 21%
Postmenopausal women; MS group
  Sum of changes above placebo, ASF domains: 209.4%
Postmenopausal women; [8]
  ASF Arousal/lubrication score, average % change from baseline to Week 12 (increased from baseline): 171%**
  ASF Arousal/sensation score, average % change from baseline to Week 12 (increased from baseline): 76.2%*
  ASF Desire score, average % change from baseline to Week 12 (increased from baseline): 24.9%
  ASF Orgasm score, average % change from baseline to Week 12 (increased from baseline): 64.3%
Postmenopausal women; [9]
  ASF Arousal/lubrication score, average % change from baseline to Week 12 (increased from baseline): 171%
  ASF Arousal/sensation score, average % change from baseline to Week 12 (increased from baseline): 76.2%
  ASF Desire score, average % change from baseline to Week 12 (increased from baseline): 24.9%
  ASF Orgasm score, average % change from baseline to Week 12 (increased from baseline): 64.3%
Postmenopausal women; [10]
  ASF Arousal/lubrication score, average % change from baseline to Week 12 (increased from baseline): 149%**
  ASF Arousal/sensation score, average % change from baseline to Week 12 (increased from baseline): 71.2%**
  ASF Desire score, average % change from baseline to Week 12 (increased from baseline): 21.0%*
  ASF Orgasm score, average % change from baseline to Week 12 (increased from baseline): 62.4%
  ASF SUMMARY SCORE, average % change from baseline to Week 12 (increased from baseline): 46.6%**
Postmenopausal women; [11]
  ASF Arousal/lubrication score, average % change from baseline to Week 12 (increased from baseline): 149%
  ASF Arousal/sensation score, average % change from baseline to Week 12 (increased from baseline): 71.2%
  ASF Desire score, average % change from baseline to Week 12 (increased from baseline): 21.0%
  ASF Orgasm score, average % change from baseline to Week 12 (increased from baseline): 62.4%
  ASF SUMMARY SCORE, average % change from baseline to Week 12 (increased from baseline): 46.6%
Postmenopausal women; [12]
  ASF Arousal/lubrication score, average % change from baseline to Week 12 (increased from baseline): 84.6%
  ASF Arousal/sensation score, average % change from baseline to Week 12 (increased from baseline): 52.7%
  ASF Desire score, average % change from baseline to Week 12 (increased from baseline): 14.0%
  ASF Orgasm score, average % change from baseline to Week 12 (increased from baseline): 55.3%
  ASF SUMMARY SCORE, average % change from baseline to Week 12 (increased from baseline): 31.1%
Postmenopausal women; [13]
  ASF Arousal/lubrication score, average % change from baseline to Week 12 (increased from baseline): 84.6%
  ASF Arousal/sensation score, average % change from baseline to Week 12 (increased from baseline): 52.7%
  ASF Desire score, average % change from baseline to Week 12 (increased from baseline): 14.0%
  ASF Orgasm score, average % change from baseline to Week 12 (increased from baseline): 55.3%
Postmenopausal women; [14]
  ASF Arousal/lubrication, average % change from baseline to Week 12 in severity score over placebo: 118%**
  ASF Arousal/sensation, average % change from baseline to Week 12 in severity score over placebo: 64.2%*
  ASF Desire, average % change from baseline to Week 12 in severity score over placebo: 12.9%
  ASF Orgasm, average % change from baseline to Week 12 in severity score over placebo: 14.3%
Postmenopausal women; [15]
  ASF Arousal/lubrication, average % change from baseline to Week 12 in severity score over placebo: 67.6%
  ASF Arousal/sensation, average % change from baseline to Week 12 in severity score over placebo: 58.0%
  ASF Desire, average % change from baseline to Week 12 in severity score over placebo: 15.2%
  ASF Orgasm, average % change from baseline to Week 12 in severity score over placebo: 59.4%
  ASF Summary score, average % change from baseline to Week 12 in severity score over placebo: 32.1%
Postmenopausal women; [16]
  ASF Arousal/lubrication, average % change from baseline to Week 12 in severity score over placebo: 104%**
  ASF Arousal/sensation, average % change from baseline to Week 12 in severity score over placebo: 62.6%**
  ASF Desire, average % change from baseline to Week 12 in severity score over placebo: 12.3%*
  ASF Orgasm, average % change from baseline to Week 12 in severity score over placebo: 26.4%
Postmenopausal women; non MS group
  Sum of changes above placebo, ASF domains: 200.2% and 202.2%
Postmenopausal women; non MS pain group versus MS pain group
  Specificity of the effect of DHEA, ASF: 30 fold
